PMC10574094, “Discovery of a SHP2 Degrader with In Vivo Anti-Tumor Activity” (Molecules, 2023)
Where “and” joins values, the source holds several entries; their conditions need not be identical. Identical values can stand only once.

Assays:
[1] = system: SHP1, PTP1B, TC-PTP, LYP, PRL1, PRL2; assay: Western blot of other PTPs in HEK293 cells (degrader selectivity); format: cell-based, human; conditions: 1 μM P9, 16 h
Protocol: (§1) HEK293, SKBR3, U2OS, MCF7 and A549 cells were grown in DMEM supplemented with 10% FBS, penicillin (50 units/mL), and streptomycin (50 μg/mL) in a 37 °C incubator containing 5% CO2. KYSE-520 and H358 cells were grown in RPMI-1640 supplemented with 10% FBS, penicillin (50 units/mL), and streptomycin (50 μg/mL) in a 37 °C incubator containing 5% CO2. For western-blot analysis, protein samples were separated by SDS-PAGE, transferred to nitrocellulose membranes, and incubated overnight at 4 °C with corresponding primary antibodies diluted in 5% BSA in phosphate-buffered saline Tween (PBST). SuperSignal™ West Pico PLUS (PI34580; Thermo Scientific) was used to visualize the antibodies in the bioanalytical imaging system (Azure Biosystems c500). Anti-p-ERK1/2 (T202/Y204) (4370), and anti-ERK1/2 (4696) were purchased from Cell Signaling Technology. Anti-GAPDH (sc-365062), anti-SHP2 (sc-7384), anti-SHP1 (sc-7289), and anti-Actin (sc-8432) antibodies were purchased from Santa Cruz. Anti-PTP1B (ab244207) antibody was purchased from Abcam. For colony formation assay, a total of approximately 200–500 cells were seeded to each well in a 12-well plate. The wells were then treated with DMSO, compound P9 and 3 at 37 °C for 3 weeks, gently washed, and stained with crystal violet.

[2] = Pharmacokinetics in mice, single IP injection; format: in vivo; conditions: for Plasma concentration / concentration at 0.5 h / concentration at 1 h / concentration at 2 h / concentration at 3 h / concentration at 6 h: individual animals; for concentration at 0.5 h / concentration at 1 h / concentration at 2 h / concentration at 3 h / concentration at 6 h / Cmax / half-life / AUC / Tmax: plasma; for concentration at 0.5 h / concentration at 1 h / concentration at 2 h / concentration at 3 h / concentration at 6 h: intraperitoneal; for Cmax / half-life / AUC / Tmax / t1/2: mice
Protocol: Experiments on mice were carried out in accordance with the regulations of the Institutional Animal Care and Use Committees at Purdue University. All mice were housed under pathogen-free conditions in the animal facility and received autoclaved water and food. Eight to ten weeks-old Nude mice were used in the study.
For pharmacokinetic studies, mice were administered a single dose of P9 at 25 or 50 mg/kg via IP injection. Blood samples were collected through the tail vein at indicated time points after injection. Isoflurane was used as an anesthetic. All blood samples were centrifuged at 1500 g for 5 min, and plasma was separated and stored at –80 °C until analysis by a validated method based on reversed-phase liquid chromatography coupled to mass-spectrometric detection (LC/MS) using a previously published procedure.

[3] = target: T1, SHP2 (Homo sapiens, UniProt Q06124); assay: SHP2 degradation by Western blotting in HEK293 cells; format: cell-based; design: endogenous in cells; host or cells: HEK293; conditions: HEK293 cells
T1 sequence (Q06124 1-593): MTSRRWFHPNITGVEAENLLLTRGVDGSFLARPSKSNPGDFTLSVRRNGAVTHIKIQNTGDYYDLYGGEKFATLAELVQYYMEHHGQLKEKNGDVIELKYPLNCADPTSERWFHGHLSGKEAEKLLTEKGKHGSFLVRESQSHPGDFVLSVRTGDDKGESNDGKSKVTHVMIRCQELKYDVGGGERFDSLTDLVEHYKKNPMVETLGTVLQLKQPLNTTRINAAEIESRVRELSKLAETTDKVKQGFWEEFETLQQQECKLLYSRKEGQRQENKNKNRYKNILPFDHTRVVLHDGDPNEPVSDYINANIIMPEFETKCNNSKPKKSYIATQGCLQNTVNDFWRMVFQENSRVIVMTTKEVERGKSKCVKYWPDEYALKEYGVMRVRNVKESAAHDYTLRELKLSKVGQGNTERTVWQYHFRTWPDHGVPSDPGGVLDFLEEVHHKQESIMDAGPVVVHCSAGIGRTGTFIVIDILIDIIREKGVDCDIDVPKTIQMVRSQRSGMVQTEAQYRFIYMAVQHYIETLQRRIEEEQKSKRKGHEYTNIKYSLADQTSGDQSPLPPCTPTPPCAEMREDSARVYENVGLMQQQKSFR

[4] = system: KYSE-520, SKBR3, U2OS, MCF7, H358 and A549 cells; assay: Colony formation assay; format: cell-based; conditions: 3 weeks treatment
Protocol: as §1

[5] = system: ERK1/2, AKT, β-Actin; assay: Western blot of other signaling proteins in HEK293 cells; format: cell-based, human; conditions: 1 μM P9, 16 h
Protocol: as §1

[6] = Nude, mouse, ip, 25 mg/kg, single IP 25 mg/kg
[7] = Nude, mouse, ip, 50 mg/kg, single IP 50 mg/kg
[8] = Nude, mouse, single IP 25 mg/kg
[9] = Nude, mouse, single IP 50 mg/kg

## Cc1ncsc1-c1ccc([C@H](C)NC(=O)[C@@H]2C[C@@H](O)CN2C(=O)[C@@H](NC(=O)CCCCCCCCCN2CCN(C(=O)CCCCCC3(CN)CCN(c4cnc(Sc5cccc(Cl)c5Cl)c(N)n4)CC3)CC2)C(C)(C)C)cc1 [P9, (2S,4R)-1-((S)-2-(10-(4-(6-(1-(6-amino-5-((2,3-dichlorophenyl)thio)pyrazin-2-yl)-4-(aminomethyl)piperidin-4-yl)hexanoyl)piperazin-1-yl)decanamido)-3,3-dimethylbutanoyl)-4-hydroxy-N-((S)-1-(4-(4-methylthiazol-5-yl)phenyl)ethyl)pyrrolidine-2-carboxamide]
[1]
  protein level of other PTPs: none of the other PTPs including SHP1, PTP1B, TC-PTP, LYP, PRL1, and PRL2, were affected
[2]; 25 mg/kg IP, 0.5 h
  Plasma concentration: 520 nM and 750 nM
[2]; 25 mg/kg IP, 1 h
  Plasma concentration: 1200 nM and 1320 nM
[2]; 25 mg/kg IP, 2 h
  Plasma concentration: 1090 nM and 930 nM
[2]; 25 mg/kg IP, 3 h
  Plasma concentration: 620 nM and 590 nM
[2]; 25 mg/kg IP, 6 h
  Plasma concentration: 410 nM and 390 nM
[2]; 25 mg/kg IP, 24 h
  Plasma concentration: 130 nM and 180 nM and 60 nM
[2]; 50 mg/kg IP, 0.5 h
  Plasma concentration: 1820 nM and 1960 nM
[2]; 50 mg/kg IP, 1 h
  Plasma concentration: 2700 nM and 2550 nM
[2]; 50 mg/kg IP, 2 h
  Plasma concentration: 1760 nM and 1700 nM
[2]; 50 mg/kg IP, 3 h
  Plasma concentration: 1220 nM and 1150 nM
[2]; 50 mg/kg IP, 6 h
  Plasma concentration: 700 nM and 680 nM
[2]; 50 mg/kg IP, 24 h
  Plasma concentration: 160 nM and 240 nM and 100 nM
[2]; Nude, mouse, 25 mg/kg, 25 mg/kg IP, 0.5 h
  concentration at 0.5 h: 560 nM
[2]; Nude, mouse, 25 mg/kg, 25 mg/kg IP, 1 h
  concentration at 1 h: 1020 nM
[2]; Nude, mouse, 25 mg/kg, 25 mg/kg IP, 2 h
  concentration at 2 h: 920 nM
[2]; Nude, mouse, 25 mg/kg, 25 mg/kg IP, 3 h
  concentration at 3 h: 550 nM
[2]; Nude, mouse, 25 mg/kg, 25 mg/kg IP, 6 h
  concentration at 6 h: 360 nM
[2]; Nude, mouse, 50 mg/kg, 50 mg/kg IP, 0.5 h
  concentration at 0.5 h: 1760 nM
[2]; Nude, mouse, 50 mg/kg, 50 mg/kg IP, 1 h
  concentration at 1 h: 2510 nM
[2]; Nude, mouse, 50 mg/kg, 50 mg/kg IP, 2 h
  concentration at 2 h: 1660 nM
[2]; Nude, mouse, 50 mg/kg, 50 mg/kg IP, 3 h
  concentration at 3 h: 1030 nM
[2]; Nude, mouse, 50 mg/kg, 50 mg/kg IP, 6 h
  concentration at 6 h: 550 nM
[2]; [6]
  Cmax: 1180 ± 130 nM
  half-life: 3.71 ± 0.72 h
[2]; [7]
  Cmax: 2510 ± 190 nM
  half-life: 3.01 ± 0.48 h
[2]; [8]
  AUC: 8.51 ± 0.6 µM·h
  Tmax: 2 h
[2]; [9]
  AUC: 15.1 ± 0.99 µM·h
  Tmax: 2 h
[2]; single IP 25 mg/kg, 25 mg/kg
  Cmax: 1200 ± 100 nM
  t1/2: 3.7 ± 0.7 h
[2]; single IP 50 mg/kg, 50 mg/kg
  Cmax: 2500 ± 200 nM
  t1/2: 3.0 ± 0.5 h
[3]
  time at which maximal SHP2 depletion was achieved: 16 h
[3]; 16 h of treatment, read-out: DC50 (concentration required for 50% degradation of protein)
  DC50: 35.2 ± 1.5 nM
[3]; tested concentration range
  hook effect: no significant hook effect
[3]; within 6 h of P9 treatment
  SHP2 protein degraded: Over 90%
[4]
  growth inhibition in colony formation assay compared with compound 3: improved efficacy in inhibiting the growth of these cancer cells
[5]
  degradation of other signaling proteins: did not induce any appreciable degradation
